The values below are quoted from earlier work in patent US20080167325A1, “VALACYCLOVIR COMPOSITIONS” (priority 2006, published 2008).

Each structure is given as a SMILES string.

The conditions of data set [1]: first-pass hepatic metabolism through enzymatic hydrolysis.
Data set [2] has as its system cytochrome P450 enzymes.
For data set [3] the following is noted: compared with acyclovir.

Regarding `CC(C)[C@H](N)C(=O)OCCOCn1cnc2c(=O)[nH]c(N)nc21` [Valacyclovir, L-valine, 2-[(2-amino-1,6-dihydro-6-oxo-9H-purin-9-yl)methoxy]ethyl ester], the “converted to the active compound, acyclovir, and L-valine” value in data set [1] is recorded as around 99%. Also, the “metabolized by cytochrome P450 enzymes” value in data set [2] is listed as “Neither valacyclovir nor acyclovir is metabolized”. In addition, in data set [3], the bioavailability entry was “much improved bioavailability”.
